Values quoted from earlier work as cited in US20060233724A1, “Medicinal composition for peridontal pocket administration containing bisphosphonic acid derivative or its salt as the active ingredient” (Toray Industries, Inc., priority 2002, published 2006).
Read-outs that look alike come from different tables or passages of the source.

Columns and labels:
[1] = system: experimental movement of molars; settings: rat
[2] = system: destruction of alveolar bone; settings: simian periodontal disease model, oral administration
[3] = system: destruction of alveolar bone; settings: canine periodontal disease model, oral administration
[4] = system: involution of alveolar bone, attachment level; settings: canine periodontal disease models, subcutaneous or oral administration
[5] = system: involution of alveolar bone; settings: hamster periodontal disease models

For O=P(O)(O)C(O)(Cc1cccnc1)P(=O)(O)O [risedronate, 1-hydroxy-2-(3-pyridyl)ethylidene-1,1-bisphosphonic acid], the “effect in experimental movement of molars” value ([1]; local administration to the vicinity of first molar) is listed as “effective”.
For NCCCC(O)(P(=O)(O)O)P(=O)(O)O [alendronate, 4-amino-1-hydroxybutylidene-1,1-bisphosphonic acid], the “destruction of alveolar bone” value [2] is listed as “inhibited destruction of alveolar bone” and the “destruction of alveolar bone” value [3] is listed as “inhibited destruction of alveolar bone”.
In the case of O=P(O)(O)C(NC1CCCCCC1)P(=O)(O)O [Incadronate disodium, 1-(cycloheptylamino) methylidene-1,1-bisphosphonic acid], the attachment level [4] is listed as “action of improvement in attachment level”, the “involution of alveolar bone” value [4] is listed as “action against involution of alveolar bone” and the “involution of alveolar bone” value [5] is listed as “exhibits inhibiting action against involution of alveolar bone”.
In the case of NCCC(O)(P(=O)(O)O)P(=O)(O)O [pamidronate], the “effect in experimental movement of molars” value ([1]; local submucosal administration to the palate) is listed as “effective”.
